According to paper PMC9044501 (Journal of molecular biology, 2021):
Blank lines part the entries; values can stand above or below the compound they belong to.

What was measured:
[1] = test system: myosin; test: Blebbistatin binding to myosin in the presence of mavacamten; conditions: Fig. S2
[2] = target: T1, myosin in bovine cardiac synthetic thick filaments (BcSTF) (Bos taurus, UniProt Q9BE39); test: Single mant-ATP turnover kinetics in BcSTF; assay type: biochemical
[3] = target: T2, bovine cardiac myofibrils (BcMF) (Bos taurus, UniProt Q9BE39); test: Single mant-ATP turnover kinetics in BcMF; assay type: biochemical
T2 sequence (Q9BE39 whole entry): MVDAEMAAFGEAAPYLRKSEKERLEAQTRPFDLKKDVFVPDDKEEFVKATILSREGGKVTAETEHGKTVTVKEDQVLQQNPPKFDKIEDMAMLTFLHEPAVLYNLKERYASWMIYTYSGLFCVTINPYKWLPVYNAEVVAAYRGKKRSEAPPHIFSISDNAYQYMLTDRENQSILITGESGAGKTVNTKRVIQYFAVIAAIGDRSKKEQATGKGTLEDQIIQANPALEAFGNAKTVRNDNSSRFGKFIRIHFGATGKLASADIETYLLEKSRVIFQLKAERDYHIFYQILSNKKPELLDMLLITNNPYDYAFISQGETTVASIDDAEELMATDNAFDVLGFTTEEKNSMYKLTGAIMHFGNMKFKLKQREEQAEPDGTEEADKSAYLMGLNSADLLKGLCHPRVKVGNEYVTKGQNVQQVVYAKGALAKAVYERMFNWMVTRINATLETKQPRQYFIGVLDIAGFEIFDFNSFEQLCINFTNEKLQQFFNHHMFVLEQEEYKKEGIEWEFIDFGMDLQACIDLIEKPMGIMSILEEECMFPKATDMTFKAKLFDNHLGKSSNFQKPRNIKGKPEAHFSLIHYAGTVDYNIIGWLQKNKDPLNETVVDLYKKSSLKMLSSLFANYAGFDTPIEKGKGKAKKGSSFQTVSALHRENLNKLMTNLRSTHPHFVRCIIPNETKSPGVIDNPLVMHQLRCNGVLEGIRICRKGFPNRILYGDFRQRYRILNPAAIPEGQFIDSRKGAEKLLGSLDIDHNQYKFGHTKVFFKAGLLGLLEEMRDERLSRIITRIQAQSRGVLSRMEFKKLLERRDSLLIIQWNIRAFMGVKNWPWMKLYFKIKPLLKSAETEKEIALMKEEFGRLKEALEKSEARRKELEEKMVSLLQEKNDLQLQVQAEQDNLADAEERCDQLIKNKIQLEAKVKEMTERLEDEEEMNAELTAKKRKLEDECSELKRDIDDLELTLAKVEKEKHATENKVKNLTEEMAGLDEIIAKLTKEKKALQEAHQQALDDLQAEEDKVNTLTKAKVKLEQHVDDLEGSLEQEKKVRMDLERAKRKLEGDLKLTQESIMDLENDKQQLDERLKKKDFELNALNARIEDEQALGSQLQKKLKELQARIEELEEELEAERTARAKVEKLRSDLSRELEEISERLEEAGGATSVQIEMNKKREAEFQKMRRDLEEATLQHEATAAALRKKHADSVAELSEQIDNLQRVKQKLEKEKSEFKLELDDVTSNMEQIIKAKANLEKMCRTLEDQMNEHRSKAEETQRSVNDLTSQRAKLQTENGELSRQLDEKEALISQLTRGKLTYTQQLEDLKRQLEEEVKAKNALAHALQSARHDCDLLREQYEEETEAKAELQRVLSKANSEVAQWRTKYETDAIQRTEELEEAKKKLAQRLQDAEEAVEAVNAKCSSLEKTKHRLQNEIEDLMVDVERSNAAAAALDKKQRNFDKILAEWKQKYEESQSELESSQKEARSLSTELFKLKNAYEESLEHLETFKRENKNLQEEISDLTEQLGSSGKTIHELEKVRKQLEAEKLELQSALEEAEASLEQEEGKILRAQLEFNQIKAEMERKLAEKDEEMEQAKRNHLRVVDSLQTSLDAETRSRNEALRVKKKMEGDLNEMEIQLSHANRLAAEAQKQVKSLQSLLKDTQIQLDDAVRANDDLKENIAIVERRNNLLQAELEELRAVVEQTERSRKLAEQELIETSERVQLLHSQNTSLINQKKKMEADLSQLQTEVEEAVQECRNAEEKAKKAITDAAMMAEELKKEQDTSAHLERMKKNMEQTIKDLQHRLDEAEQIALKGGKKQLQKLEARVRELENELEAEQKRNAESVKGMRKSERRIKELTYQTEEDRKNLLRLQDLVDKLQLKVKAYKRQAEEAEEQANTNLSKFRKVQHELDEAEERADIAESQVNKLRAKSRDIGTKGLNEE
T2 sequence (P85100 whole entry partner): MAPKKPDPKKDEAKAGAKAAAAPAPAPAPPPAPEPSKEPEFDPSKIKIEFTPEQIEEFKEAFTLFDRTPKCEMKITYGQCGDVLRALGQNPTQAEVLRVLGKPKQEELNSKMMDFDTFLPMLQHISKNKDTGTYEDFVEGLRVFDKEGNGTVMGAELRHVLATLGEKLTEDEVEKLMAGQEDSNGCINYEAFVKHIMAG
T2 sequence (Q3SZE5 whole entry partner): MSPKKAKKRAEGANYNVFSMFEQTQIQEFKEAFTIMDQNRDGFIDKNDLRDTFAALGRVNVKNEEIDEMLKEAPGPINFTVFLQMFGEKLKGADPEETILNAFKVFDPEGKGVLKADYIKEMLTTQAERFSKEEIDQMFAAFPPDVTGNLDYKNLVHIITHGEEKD

[4] = target: T1, myosin in bovine cardiac synthetic thick filaments (BcSTF); test: Basal myosin ATPase activity; assay type: biochemical; conditions: read-out: Basal ATPase (BcSTF) IC50, 1 μM myosin, 23°C
[5] = target: T2, bovine cardiac myofibrils (BcMF); test: Myofibrillar ATPase activity at pCa 6; assay type: biochemical; conditions: read-out: Myofibrillar ATPase (BcMF) IC50, pCa 6, 23°C
[6] = target: T3, human β-cardiac 25-hep HMM (Homo sapiens, UniProt P12883); test: SEC-MALS-DLS light scattering of 25-hep HMM; conditions: at 20 μM mavacamten and 50 μM para-nitroblebbistatin
[7] = target: T3, human β-cardiac 25-hep HMM; test: Small-angle X-ray scattering; conditions: at 20 μM mavacamten and 50 μM para-nitroblebbistatin

T1 sequence (Q9BE39 whole entry): as the sequence (Q9BE39 whole entry) above
T1 sequence (P85100 whole entry partner): as the sequence (P85100 whole entry partner) above
T1 sequence (Q3SZE5 whole entry partner): as the sequence (Q3SZE5 whole entry partner) above

binding of blebbistatin in the presence of mavacamten [1]: not compromised
SMILES: Cc1ccc2c(c1)C(=O)C1(O)CCN(c3ccccc3)C1=N2 (centres unmarked) [blebbistatin]

Hill coefficient ([2]; DRX to SRX shift, up to 3.125 μM): 2–4
magnitude of myosin SRX population ([2]; saturating concentrations): ~ 100%
magnitude of myosin SRX population ([3]; saturating concentrations): ~ 65%
SMILES: CC(C)n1c(=O)cc(N[C@@H](C)c2ccccc2)[nH]c1=O [Mavacamten, mavacamten]

IC50 [4]: 2.37 ± 0.12 µM
IC50 [5]: 4.05 ± 0.34 µM
lifetime of mant-nucleotides for compound-bound myosin ([2]; experiment duration 2400 s): > 2400 s
IC50 ([2]; read-out: DRX ATPase Rate, kfast (BcSTF), half-maximal decrease, 0μM blebbistatin): > 12.5 µM
EC50 ([2]; read-out: SRX Amplitude, Aslow (BcSTF), half-maximal increase, 0μM blebbistatin): > 12.5 µM
IC50 ([3]; read-out: DRX ATPase Rate, kfast (BcMF), half-maximal decrease): > 12.5 µM
EC50 ([3]; read-out: SRX Amplitude, Aslow (BcMF), half-maximal increase): > 12.5 µM
Hydrodynamic radius of 25-hep HMM (DLS) [6]: 84.1±2.2 Å
Molecular Mass of 25-hep HMM (MALS) [6]: 363±14 kDa
I(0), Guinier Analysis [7]: 0.04 ± 0.01 cm⁻¹
I(0), P(r) Analysis [7]: 0.04 ± 0 cm⁻¹
Porod volume, P(r) Analysis [7]: 1.42e6 Å^−3
Rg, Guinier Analysis [7]: 102.5±1.5 Å
Rg, P(r) Analysis [7]: 124±10 Å
reduction of Rg (Guinier) compared to untreated 25-hep HMM [7]: 14%
reduction of Rg (P(r) analysis) compared to untreated 25-hep HMM [7]: 11%
SMILES: Cc1ccc2c(c1)C(=O)[C@]1(O)CCN(c3ccc([N+](=O)[O-])cc3)C1=N2 [Para-nitroblebbistatin, para-nitroblebbistatin]
